How the values were obtained:
Format in all cases: in vivo
[1] = tested on: Solanum nigrum (SOLNI); assay: Pre-emergence herbicidal glasshouse test on Solanum nigrum; conditions: pre-emergence, 1000 g/h, evaluated after 13 days
Summary of the method: (§1)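 Pre-emergence treatment came one day after sowing, post-emergence treatment after eight days' growth; both used 1000 g/h in a 0.5% Tween 20 acetone/water vehicle. Percent damage, scored 1–5, was read 13 days later.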

[2] = tested on: Ipomoea hederacea (IPOHE); assay: Pre-emergence herbicidal glasshouse test on Ipomoea hederacea; conditions: pre-emergence, 1000 g/h, evaluated after 13 days
Summary of the method: as §1

[3] = tested on: Amaranthus retoflexus (AMARE); assay: Pre-emergence herbicidal glasshouse test on Amaranthus retoflexus; conditions: pre-emergence, 1000 g/h, evaluated after 13 days
Summary of the method: as §1

[4] = tested on: Solanum nigrum (SOLNI); assay: Post-emergence herbicidal glasshouse test on Solanum nigrum; conditions: post-emergence, 1000 g/h, evaluated after 13 days
Summary of the method: as §1

[5] = tested on: Setaria faberi (SETFA); assay: Pre-emergence herbicidal glasshouse test on Setaria faberi; conditions: pre-emergence, 1000 g/h, evaluated after 13 days
Summary of the method: as §1

[6] = tested on: Echinochloa crus-galli (ECHCG); assay: Post-emergence herbicidal glasshouse test on Echinochloa crus-galli; conditions: post-emergence, 1000 g/h, evaluated after 13 days
Summary of the method: as §1

[7] = tested on: Ipomoea hederacea (IPOHE); assay: Post-emergence herbicidal glasshouse test on Ipomoea hederacea; conditions: post-emergence, 1000 g/h, evaluated after 13 days
Summary of the method: as §1

[8] = tested on: Amaranthus retoflexus (AMARE); assay: Post-emergence herbicidal glasshouse test on Amaranthus retoflexus; conditions: post-emergence, 1000 g/h, evaluated after 13 days
Summary of the method: as §1

[9] = tested on: Setaria faberi (SETFA); assay: Post-emergence herbicidal glasshouse test on Setaria faberi; conditions: post-emergence, 1000 g/h, evaluated after 13 days
Summary of the method: as §1

[10] = tested on: Alopecurus myosuroides (ALOMY); assay: Pre-emergence herbicidal glasshouse test on Alopecurus myosuroides; conditions: pre-emergence, 1000 g/h, evaluated after 13 days
Summary of the method: as §1

[11] = tested on: Alopecurus myosuroides (ALOMY); assay: Post-emergence herbicidal glasshouse test on Alopecurus myosuroides; conditions: post-emergence, 1000 g/h, evaluated after 13 days
Summary of the method: as §1

[12] = tested on: Echinochloa crus-galli (ECHCG); assay: Pre-emergence herbicidal glasshouse test on Echinochloa crus-galli; conditions: pre-emergence, 1000 g/h, evaluated after 13 days
Summary of the method: as §1

Row | SMILES | PRE Application SOLNI herbicidal damage (five point scale) [1] | PRE Application IPOHE herbicidal damage (five point scale) [2] | PRE Application AMARE herbicidal damage (five point scale) [3] | POST Application SOLNI herbicidal damage (five point scale) [4] | PRE Application SETFA herbicidal damage (five point scale) [5] | POST Application ECHCG herbicidal damage (five point scale) [6] | POST Application IPOHE herbicidal damage (five point scale) [7] | POST Application AMARE herbicidal damage (five point scale) [8] | POST Application SETFA herbicidal damage (five point scale) [9] | PRE Application ALOMY herbicidal damage (five point scale) [10] | POST Application ALOMY herbicidal damage (five point scale) [11] | PRE Application ECHCG herbicidal damage (five point scale) [12] | other results
1 | Cn1ncc(-c2ccc(C(F)(F)F)cc2S(=O)(=O)N2CCOCC2)c(O)c1=O [Compound 2.049] | 5 (5=80-100% damage) | 4 (4=60-79% damage) | 5 (5=80-100% damage) | 5 (5=80-100% damage) | 2 (2=20-39% damage) | 5 (5=80-100% damage) | 5 (5=80-100% damage) | 5 (5=80-100% damage) | 1 (1=0-19% damage) | 1 (1=0-19% damage) | 1 (1=0-19% damage) | 5 (5=80-100% damage) | 
2 | COCn1ncc(-c2ccc(F)cc2S(C)(=O)=O)c(O)c1=O [Compound 2.006] | 5 (5=80-100% damage) | 5 (5=80-100% damage) | 5 (5=80-100% damage) | 5 (5=80-100% damage) | 5 (5=80-100% damage) | 5 (5=80-100% damage) | 5 (5=80-100% damage) | 5 (5=80-100% damage) | 5 (5=80-100% damage) | 5 (5=80-100% damage) | 5 (5=80-100% damage) | 5 (5=80-100% damage) | 
3 | C=CCn1ncc(-c2ccccc2S(C)(=O)=O)c(O)c1=O [Compound 2.001] | 5 (5=80-100% damage) | 5 (5=80-100% damage) | 5 (5=80-100% damage) | 5 (5=80-100% damage) | 5 (5=80-100% damage) | 5 (5=80-100% damage) | 5 (5=80-100% damage) | 5 (5=80-100% damage) | 5 (5=80-100% damage) | 5 (5=80-100% damage) | 5 (5=80-100% damage) | 5 (5=80-100% damage) | 
4 | Cn1ncc(-c2cc(OC(F)(F)F)ccc2Cl)c(O)c1=O [Compound 1.100] | 1 (1=0-19% damage) | 1 (1=0-19% damage) | 1 (1=0-19% damage) | 2 (2=20-39% damage) | 1 (1=0-19% damage) | 1 (1=0-19% damage) | 2 (2=20-39% damage) | 2 (2=20-39% damage) | 1 (1=0-19% damage) | 1 (1=0-19% damage) | 1 (1=0-19% damage) | 1 (1=0-19% damage) | 
5 | CC(C)Oc1nn(C)c(=O)c(O)c1-c1ccc(C(F)(F)F)cc1S(C)(=O)=O [Compound 2.052] | 5 (5=80-100% damage) | 4 (4=60-79% damage) | 5 (5=80-100% damage) | 5 (5=80-100% damage) | 3 (3=40-59% damage) | 5 (5=80-100% damage) | 5 (5=80-100% damage) | 5 (5=80-100% damage) | 5 (5=80-100% damage) | 4 (4=60-79% damage) | 5 (5=80-100% damage) | 5 (5=80-100% damage) | 
6 | COCc1nc(C(F)(F)F)ccc1-c1cnn(C)c(=O)c1O [Compound 1.073] | 5 (5=80-100% damage) | 2 (2=20-39% damage) | 5 (5=80-100% damage) | 5 (5=80-100% damage) | 5 (5=80-100% damage) | 5 (5=80-100% damage) | 5 (5=80-100% damage) | 5 (5=80-100% damage) | 5 (5=80-100% damage) | 5 (5=80-100% damage) | 4 (4=60-79% damage) | 5 (5=80-100% damage) | 
7 | Cc1cc(Cl)ccc1-c1cnn(C)c(=O)c1O [Compound 1.082] | 1 (1=0-19% damage) | 1 (1=0-19% damage) | 1 (1=0-19% damage) | 4 (4=60-79% damage) | 1 (1=0-19% damage) | 1 (1=0-19% damage) | 2 (2=20-39% damage) | 2 (2=20-39% damage) | 1 (1=0-19% damage) | 1 (1=0-19% damage) | 1 (1=0-19% damage) | 1 (1=0-19% damage) | 
8 | C#CCn1ncc(-c2ccc(S(C)(=O)=O)c(C3=NOCC3)c2C)c(O)c1=O [Compound 1.163] |  |  |  |  |  |  |  |  |  |  |  |  | herbicidal damage, PRE Application SOLNI ([1]; five point scale): 5 (5=80-100% damage); herbicidal damage, PRE Application IPOHE ([2]; five point scale): 4 (4=60-79% damage); herbicidal damage, PRE Application AMARE ([3]; five point scale): 5 (5=80-100% damage); herbicidal damage, POST Application SOLNI ([4]; five point scale): 5 (5=80-100% damage); herbicidal damage, PRE Application SETFA ([5]; five point scale): 5 (5=80-100% damage); herbicidal damage, POST Application ECHCG ([6]; five point scale): 5 (5=80-100% damage); herbicidal damage, POST Application IPOHE ([7]; five point scale): 5 (5=80-100% damage); herbicidal damage, POST Application AMARE ([8]; five point scale): 5 (5=80-100% damage); herbicidal damage, POST Application SETFA ([9]; five point scale): 5 (5=80-100% damage); herbicidal damage, PRE Application ALOMY ([10]; five point scale): 5 (5=80-100% damage); herbicidal damage, POST Application ALOMY ([11]; five point scale): 5 (5=80-100% damage); herbicidal damage, PRE Application ECHCG ([12]; five point scale): 5 (5=80-100% damage)
9 | CCCn1ncc(-c2c(Cl)ccc(Cl)c2Cl)c(O)c1=O [Compound 1.128] | 1 (1=0-19% damage) | 1 (1=0-19% damage) | 1 (1=0-19% damage) | 4 (4=60-79% damage) | 1 (1=0-19% damage) | 1 (1=0-19% damage) | 3 (3=40-59% damage) | 1 (1=0-19% damage) | 2 (2=20-39% damage) | 1 (1=0-19% damage) | 1 (1=0-19% damage) | 1 (1=0-19% damage) | 
10 | Cn1ncc(-n2ccc(C(F)(F)F)c(-c3cccc(Cl)c3Cl)c2=O)c(O)c1=O [Compound 7.029] | 5 (5=80-100% damage) | 1 (1=0-19% damage) | 5 (5=80-100% damage) | 5 (5=80-100% damage) | 1 (1=0-19% damage) | 5 (5=80-100% damage) | 4 (4=60-79% damage) | 5 (5=80-100% damage) | 2 (2=20-39% damage) | 2 (2=20-39% damage) | 3 (3=40-59% damage) | 2 (2=20-39% damage) | 

From patent publication US9693556B2, “Herbicidal pyridazinone derivatives” (SYNGENTA LIMITED, priority 2011, dated 2017)
